Measurements: patent publication US20260083704A1, “LXR MODULATORS WITH BICYCLIC CORE MOIETY FOR TREATING DYSLIPIDEMIAS” (OrsoBio, Inc., priority 2022, published 2026)
Where two headings read alike, the source gives them in different places.

Key:
[1] = biological target: T1, LXRβ (Homo sapiens, UniProt P55055); assay: LXR Gal4 reporter transient transfection assay (mammalian two-hybrid, HEK293), LXRβ; format: cell-based; details: ligand-binding domain (LBD) of LXRβ, HEK293; read-out: LBD-M2H Gal4β
T1 construct: LXRβ (amino acids 156-461); expressed in transfected cells; host or cells: HEK293
T1 sequence (P55055 156-460): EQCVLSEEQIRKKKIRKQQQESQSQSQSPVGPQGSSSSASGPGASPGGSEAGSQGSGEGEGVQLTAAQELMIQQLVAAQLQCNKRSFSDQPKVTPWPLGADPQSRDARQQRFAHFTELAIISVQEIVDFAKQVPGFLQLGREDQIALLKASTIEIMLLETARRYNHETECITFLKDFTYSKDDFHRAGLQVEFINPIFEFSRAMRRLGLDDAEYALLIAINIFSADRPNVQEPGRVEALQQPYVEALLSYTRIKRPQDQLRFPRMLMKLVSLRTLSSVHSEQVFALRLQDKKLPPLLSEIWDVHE
Protocol: LXRα and LXRβ activity status was determined via detection of interaction with coactivator and corepressor proteins in mammalian two-hybrid experiments (M2H). For this, via transient transfection the full length (FL) proteins of LXRα (amino acids 1-447; NP005684; SEQ ID NO:1) or LXRβ-(amino acids 1-461; NP009052; SEQ ID NO:2) or the ligand-binding domains (LBD) of LXRα (amino acids 155-447 SEQ ID NO:3) or LXRβ (amino acids 156-461; SEQ ID NO:4) were expressed from pCMV-AD (Stratagene) as fusions to the transcriptional activation domain of NFkB. As cofactors, domains of either the steroid receptor coactivator 1 (SRC1; amino acids 552-887; SEQ ID NO:5) or of the corepressor NCoR (amino acids 1906-2312; NP006302; SEQ ID NO:6) were expressed as fusions to the DNA binding domain of the yeast transcription factor GAL4 (from pCMV-BD; Stratagene). Interaction was monitored via activation of a coexpressed Firefly Luciferase Reporter gene under control of a promoter containing repetitive GAL4 response elements (vector pFRLuc; Stratagene). Transfection efficiency was controlled via cotransfection of constitutively active pRL-CMV Renilla reniformis luciferase reporter (Promega). HEK293 cells were grown in minimum essential medium (MEM) with 2 mM L-glutamine and Earle's balanced salt solution supplemented with 8.3% fetal bovine serum, 0.1 mM non-essential amino acids, 1 mM sodium pyruvate, at 37° C. in 5% CO2. 3.5×10^4 cells/well were plated in 96-well cell culture plates in growth medium supplemented with 8.3% fetal bovine serum for 16-20 h to ˜90% confluency. For transfection, medium was taken off and LXR and cofactor expressing plasmids as well as the reporter plasmids are added in 30 μL OPTIMEM/well including polyethylene-imine (PEI) as vehicle. Typical amounts of plasmids transfected/well: pCMV-AD-LXR (5 ng), pCMV-BD-cofactor (5 ng), pFR-Luc (100 ng), pRL-CMV (0.5 ng). Compound stocks were prepared in DMSO, prediluted in MEM to a total volume of 120 μL, and added 4 h after addition of the transfection mixture (final vehicle concentration not exceeding 0.2%). Cells were incubated for additional 16 h, lysed for 10 min in 1×Passive Lysis Buffer (Promega) and Firefly and Renilla luciferase activities were measured sequentially in the same cell extract using buffers containing D-luciferine and coelenterazine, respectively. Measurements of luminescence were done in a BMG-luminometer.
The potencies of Compound 21/3 and its analog, Compound pre-6/3, against LXRα and LXRβ were evaluated in biochemical binding assays, cellular mammalian two-hybrid (M2H) interaction assays evaluating nuclear receptor co-repressor (NCOR) recruitment, and cellular reporter assays evaluating transcriptional activity (Table 5).

[2] = biological target: T2, GST-LXRβ ligand-binding domain (Homo sapiens, UniProt P55055); assay: TR-FRETβ activity assay (NCoA3 coactivator peptide recruitment); format: biochemical; details: 1 μM 24(S)-25-epoxycholesterol prestimulation
T2 construct: amino acids 156-461; NP009052; made in house; host or cells: E. coli
T2 sequence (P55055 156-460 limits assumed): T1 sequence (P55055 156-460)
Outline: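 E. coli-expressed GST-LXRβ LBD (aa 156-461, 76 nM) with biotinylated NCoA3 peptide (400 nM) in Tris/HCl pH 6.8 containing 1 μM 24(S)-25-epoxycholesterol agonist. Compounds tested at 50 μM down to 0.002 μM in triplicate. TR-FRET (Tb cryptate/XL665, ex 340, em 615/665 nm) read after 1 h at 4° C.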

[3] = biological target: T3, LXRβ (Homo sapiens, UniProt P55055); assay: LXR Gal4 reporter transient transfection assay (mammalian two-hybrid, HEK293), LXRβ; format: cell-based; design: LXRβ (amino acids 156-461); expressed in transfected cells; host or cells: HEK293; details: full length (FL) LXRβ, HEK293; read-out: FL-M2H Gal4β
T3 sequence (P55055 1-460): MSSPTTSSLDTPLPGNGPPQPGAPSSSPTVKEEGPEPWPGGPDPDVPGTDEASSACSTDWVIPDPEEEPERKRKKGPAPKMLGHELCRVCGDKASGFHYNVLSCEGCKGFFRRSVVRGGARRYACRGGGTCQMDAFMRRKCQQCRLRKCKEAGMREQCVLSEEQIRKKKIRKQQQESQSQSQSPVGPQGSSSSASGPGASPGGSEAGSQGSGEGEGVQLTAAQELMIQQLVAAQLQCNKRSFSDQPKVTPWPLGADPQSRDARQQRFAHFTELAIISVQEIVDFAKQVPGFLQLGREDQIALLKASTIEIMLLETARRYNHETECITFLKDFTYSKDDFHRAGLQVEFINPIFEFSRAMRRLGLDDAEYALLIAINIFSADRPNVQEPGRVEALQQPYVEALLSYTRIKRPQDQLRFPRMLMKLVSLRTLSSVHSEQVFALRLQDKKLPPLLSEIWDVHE
Outline: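 HEK293 cells transiently co-transfected with full-length or LBD LXRα/LXRβ fused to NFkB activation domain, GAL4-DBD-fused SRC1 or NCoR cofactor domain, GAL4-responsive firefly luciferase reporter and Renilla control. Compound added 4 h post-transfection (≤0.2% DMSO), incubated 16 h; firefly and Renilla luminescence read sequentially.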

| Structure (SMILES) | EC50 [1] | EC50 [2] | EC50 [3] |
| --- | --- | --- | --- |
| Cc1ccc(S(=O)(=O)n2c(-c3ccsc3)c(-c3ccsc3C#N)c3ccccc32)cc1 [1/23] | < 100 nM | 100 to 1000 nM | – |
| Cc1cc(C)c(S(=O)(=O)n2c(-c3cccs3)c(-c3ccsc3C#N)c3ccccc32)c(C)c1 [1/26] | < 100 nM | 1000 to 10000 nM | – |
| N#Cc1sccc1-c1c(-c2cccs2)n(S(=O)(=O)c2cccc3ccccc23)c2ccccc12 [1/27] | < 100 nM | 1000 to 10000 nM | – |
| Cn1cnc(S(=O)(=O)n2c(-c3cccs3)c(-c3ccsc3C#N)c3ccccc32)c1 [1/28] | < 100 nM | 1000 to 10000 nM | – |
| COc1ccc2c(-c3ccsc3C#N)c(-c3cccs3)n(S(=O)(=O)c3ccc(Cl)cc3)c2c1 [1/40] | < 100 nM | 1000 to 10000 nM | – |
| N#Cc1sccc1-c1c(-c2ccccc2)n(S(=O)(=O)c2cccnc2)c2ccccc12 [1/41] | < 100 nM | 1000 to 10000 nM | – |
| Cc1ncc(S(=O)(=O)n2c(-c3ccccc3)c(-c3ccsc3C#N)c3ccccc32)s1 [1/42] | < 100 nM | 1000 to 10000 nM | – |
| N#Cc1sccc1-c1c(-c2cccc(N3CC(C(=O)O)C3)c2)n(S(=O)(=O)c2ccccc2)c2ccc(F)cc12 [3/9] | < 100 nM | 1000 to 10000 nM | – |
| Cc1ccc(S(=O)(=O)n2c(-c3ccc(CC(C)(C)C(=O)O)s3)c(-c3ccsc3C#N)c3ccccc32)cc1 [3/16] | 100 to 1000 nM | 1000 to 10000 nM | – |
| Cc1ccc(S(=O)(=O)n2c(-c3cc(C4CC4C(=O)O)cs3)c(-c3ccsc3C#N)c3ccccc32)cc1 (stereo not shown) [3/17] | < 100 nM | 1000 to 10000 nM | – |
| Cc1ccc(S(=O)(=O)n2c(-c3cccc(/C=C/C(=O)O)c3)c(-c3ccsc3C#N)c3ccccc32)cc1 [3/18] | < 100 nM | 1000 to 10000 nM | – |
| Cc1ccc(S(=O)(=O)n2c(-c3ccc(/C=C/C(=O)O)s3)c(-c3ccsc3C#N)c3ccccc32)cc1 [3/19] | 100 to 1000 nM | 1000 to 10000 nM | – |
| Cc1ccc(S(=O)(=O)n2c(-c3cccc(C(C)(C)C(=O)O)c3)c(-c3ccsc3C#N)c3ccccc32)cc1 [3/20] | < 100 nM | 1000 to 10000 nM | – |
| N#Cc1sccc1-c1c(-c2cccc(OCC(=O)O)c2)n(S(=O)(=O)c2ccc(Cl)cc2)c2ccccc12 [3/51] | 100 to 1000 nM | 1000 to 10000 nM | – |
| Cc1ccc(S(=O)(=O)n2c(-c3cccc(-c4cc(F)c(C(=O)O)cc4Cl)c3)c(-c3ccsc3C#N)c3cc(F)ccc32)cc1 [12/2] | – | 100 to 1000 nM | < 100 nM |
| Cc1ccc(S(=O)(=O)n2c(-c3cccc(-c4ccc(C(=O)O)c(F)c4Cl)c3)c(-c3ccsc3C#N)c3cc(F)ccc32)cc1 [12/3] | – | 100 to 1000 nM | < 100 nM |
| COc1cc(-c2cccc(-c3c(-c4ccsc4C#N)c4cc(F)ccc4n3S(=O)(=O)c3ccc(C)cc3)c2)c(Cl)cc1C(=O)O [12/4] | – | 100 to 1000 nM | < 100 nM |
| COc1c(C(=O)O)ccc(-c2cccc(-c3c(-c4ccsc4C#N)c4cc(F)ccc4n3S(=O)(=O)c3ccc(C)cc3)c2)c1Cl [12/5] | – | < 100 nM | < 100 nM |

| Structure (SMILES) | EC50 [1] | EC50 [2] | EC50 [3] |
| --- | --- | --- | --- |
| Cc1ccc(S(=O)(=O)n2c(-c3cccc(-c4cc(C(=O)O)n[nH]4)c3)c(-c3ccsc3C#N)c3cc(F)ccc32)cc1 [12/6] | – | 1000 to 10000 nM | 1000 to 10000 nM |
| Cc1ccc(S(=O)(=O)n2c(-c3cccc(-c4cc(C(=O)O)nn4C)c3)c(-c3ccsc3C#N)c3cc(F)ccc32)cc1 [12/7] | – | 100 to 1000 nM | 100 to 1000 nM |
| Cc1ccc(S(=O)(=O)n2c(-c3cccc(-c4cc(C(=O)O)nn4C(C)C)c3)c(-c3ccsc3C#N)c3cc(F)ccc32)cc1 [12/8] | – | 1000 to 10000 nM | 100 to 1000 nM |
| Cc1ccc(S(=O)(=O)n2c(-c3cccc(-c4ccc5c(C(=O)O)n[nH]c5c4)c3)c(-c3ccsc3C#N)c3cc(F)ccc32)cc1 [12/9] | – | 100 to 1000 nM | 100 to 1000 nM |
| N#Cc1cccc(C#N)c1-c1c(-c2cccc(-c3ccc(S(=O)(=O)O)cc3Cl)c2)n(S(=O)(=O)c2ccc(C(F)F)cc2)c2ccc(F)cc12 [12/10] | – | < 100 nM | < 100 nM |
| COc1ccc(S(=O)(=O)n2c(-c3ccccc3)c(-c3cc4ccccc4nc3C#N)c3ccccc32)cc1 [20/17] | 100 to 1000 nM | – | – |
| COc1ccc(S(=O)(=O)n2c(-c3ccccc3)c(-c3c(C#N)sc4ccccc34)c3ccccc32)cc1 [20/18] | < 100 nM | – | – |
| N#Cc1sccc1-c1c(-c2cccc(-c3ccc(C(=O)O)cc3)c2)n(S(=O)(=O)c2ccc3c(c2)CCC3)c2ccc(F)cc12 [23/3] | – | 100 to 1000 nM | < 100 nM |
| Cc1ccc(S(=O)(=O)n2c(-c3cccc(-c4cncc(C(C)(C)C(=O)O)c4)c3)c(-c3ccsc3C#N)c3ccccc32)cc1 [30/3] | 100 to 1000 nM | – | – |
| CC(C)(O)c1ccc(S(=O)(=O)n2c(-c3cccc(-c4ccc(C(=O)O)cc4Cl)c3)c(-c3ccccc3C#N)c3cc(F)ccc32)cc1 [30/16] | – | 1000 to 10000 nM | 100 to 1000 nM |
| COC(=O)C(C)(C)N(C)C(=O)C1CN(c2cccc(-c3c(-c4ccsc4C#N)c4cc(F)ccc4n3S(=O)(=O)c3ccc(C)cc3)c2)C1 [32/2] | – | 100 to 1000 nM | 100 to 1000 nM |
| Cc1ccc(S(=O)(=O)n2c(-c3cccc(-c4ccc(C(=O)NS(C)(=O)=O)cc4Cl)c3)c(-c3ccsc3C#N)c3cc(F)ccc32)cc1 [32/4] | – | < 100 nM | < 100 nM |
| Cc1ccc(S(=O)(=O)n2c(-c3cccc(-c4ccc(C(=O)O)nc4C)c3)c(-c3ccsc3C#N)c3cc(F)ccc32)cc1 [36/1] | – | 100 to 1000 nM | < 100 nM |
| Cc1ccc(S(=O)(=O)n2c(-c3cccc(-c4cccc(S(C)(=O)=Nc5nnn[nH]5)c4)c3)c(-c3ccsc3C#N)c3cc(F)ccc32)cc1 (stereo not shown) [37/1] | – | 100 to 1000 nM | 100 to 1000 nM |
| O=C(O)c1ccc(-c2cccc(-c3c(-c4ccccc4)c4cc(F)ccc4n3S(=O)(=O)c3ccc(C(F)F)cc3)c2)c(Cl)c1 [C11/39] | – | 100 to 1000 nM | < 100 nM |
| Cc1ccc(S(=O)(=O)n2c(-c3cccc(-c4ccc(C(C(=O)O)N(C)C)cc4Cl)c3)c(-c3ccsc3C#N)c3cc(F)ccc32)cc1 (stereo not shown) [Compound 3] | – | < 100 nM | < 100 nM |
| Cc1ccc(S(=O)(=O)n2c(-c3cccc(C4CC4C(=O)O)c3)c(-c3ccsc3C#N)c3ncccc32)cc1 (stereo not shown) [Compound 4] | – | 1000 to 10000 nM | 100 to 1000 nM |
